These results are taken from PMC6656724 (Communications Biology, 2019).

SMILES strings stand for the structures.

T2 sequence (O15229 whole entry): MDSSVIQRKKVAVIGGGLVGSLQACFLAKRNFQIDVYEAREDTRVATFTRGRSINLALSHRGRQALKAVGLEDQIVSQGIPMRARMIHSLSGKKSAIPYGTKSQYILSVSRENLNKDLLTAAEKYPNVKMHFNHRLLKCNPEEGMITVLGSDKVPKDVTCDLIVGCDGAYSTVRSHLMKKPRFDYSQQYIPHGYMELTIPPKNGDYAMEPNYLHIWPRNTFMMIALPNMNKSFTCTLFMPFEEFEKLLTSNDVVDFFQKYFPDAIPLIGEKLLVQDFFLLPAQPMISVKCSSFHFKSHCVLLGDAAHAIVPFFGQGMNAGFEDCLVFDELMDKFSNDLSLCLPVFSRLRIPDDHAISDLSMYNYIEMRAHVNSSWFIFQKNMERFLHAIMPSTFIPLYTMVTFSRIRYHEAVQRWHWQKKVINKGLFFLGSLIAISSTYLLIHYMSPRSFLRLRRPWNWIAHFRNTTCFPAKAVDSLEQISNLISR

For one assay, the target named is T1, Pseudomonas fluorescens KMO (PfKMO) (Pseudomonas fluorescens, UniProt Q84HF5, C252S/C461S).
T1 construct: made in house; host or cells: E. coli BL21 (DE3)
T1 sequence (Q84HF5 whole entry C252S/C461S): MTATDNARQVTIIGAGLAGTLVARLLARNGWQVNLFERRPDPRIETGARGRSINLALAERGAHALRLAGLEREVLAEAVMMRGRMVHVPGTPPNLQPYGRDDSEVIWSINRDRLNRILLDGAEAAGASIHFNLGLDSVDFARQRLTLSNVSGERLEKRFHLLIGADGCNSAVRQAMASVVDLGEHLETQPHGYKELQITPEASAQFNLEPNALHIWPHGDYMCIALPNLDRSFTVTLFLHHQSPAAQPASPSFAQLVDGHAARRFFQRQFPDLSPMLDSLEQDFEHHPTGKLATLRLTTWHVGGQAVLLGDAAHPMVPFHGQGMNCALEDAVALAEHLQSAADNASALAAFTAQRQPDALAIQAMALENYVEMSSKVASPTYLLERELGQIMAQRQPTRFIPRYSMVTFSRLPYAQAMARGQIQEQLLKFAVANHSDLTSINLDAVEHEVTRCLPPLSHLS
In words: biochemical. An outline of the steps: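 NADPH consumption followed at 340 nm, initial rates from linear fits, triplicate. IC50 from % inhibition vs inhibitor concentration fitted to the Morrison equation.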
With `COC(=O)CN1C(=O)COc2cc(C)c(Cl)c(C)c21` [1a], the concentration for half-maximal inhibition (IC50) was > 500 µM.
The same measure, in the same setting: to `Cn1c(C(=O)N[C@@H](C(=O)O)c2ccccc2)cc2cc(F)ccc21` [compound 5, (R)-2-(5-fluoro-1-methyl-1H-indole-2-carboxamido)-2-phenylacetic acid] belongs 123 ± 8 µM; to `Oc1ccc(-c2csc3nc(-c4ccccc4)nn23)c(O)c1` [compound 3, 4-(2-phenyl[1,2,4]triazolo[5,1-b][1,3]thiazol-6-yl)benzene-1,3-diol], 74.7 ± 8 µM.
Still for that read-out and setting: to `CCOC(=O)CN1C(=O)COc2cc(C)c(Cl)c(C)c21` [1b] belongs > 300 µM; to `Cc1cc2c(c(C)c1Cl)N(Cc1nn[nH]n1)C(=O)CO2` [1h, 6-chloro-5,7-dimethyl-4-(2H-tetrazol-5-ylmethyl)-1,4-benzoxazin-3-one], 17 ± 0.43 µM; to `CC(CSc1ccc(Cl)cc1)C(=O)O` (centres unmarked) [compound 6, 3-[(4-chlorophenyl)thio]-2-methylpropanoic acid], 85.6 ± 4.4 µM.
Still for that read-out and setting: for `Cc1cc2c(c(C)c1Cl)N(CC(=O)OC(C)C)C(=O)CO2` [1c] the value was > 300 µM.

Another assay addresses T2, Homo sapiens KMO (HsKMO) (Homo sapiens, UniProt O15229).
T2 construct: GST; made in house
The experiment in a line: KMO inhibition assay, NADPH oxidation at 340 nm (HsKMO). It is filed as biochemical.
`COC(=O)CN1C(=O)COc2cc(C)c(Cl)c(C)c21` [1a]: the concentration for half-maximal inhibition (IC50) was ~500 µM.
The same measure, in the same setting: for `Cn1c(C(=O)N[C@@H](C(=O)O)c2ccccc2)cc2cc(F)ccc21` [compound 5, (R)-2-(5-fluoro-1-methyl-1H-indole-2-carboxamido)-2-phenylacetic acid] the value was 55.3 µM; for `Oc1ccc(-c2csc3nc(-c4ccccc4)nn23)c(O)c1` [compound 3, 4-(2-phenyl[1,2,4]triazolo[5,1-b][1,3]thiazol-6-yl)benzene-1,3-diol], 2.3 µM; for `CCOC(=O)CN1C(=O)COc2cc(C)c(Cl)c(C)c21` [1b], > 500 µM.
The same measure, in the same setting: for `Cc1cc2c(c(C)c1Cl)N(Cc1nn[nH]n1)C(=O)CO2` [1h, 6-chloro-5,7-dimethyl-4-(2H-tetrazol-5-ylmethyl)-1,4-benzoxazin-3-one] the value was 1.28 ± 0.08 µM.
Consider `CC(CSc1ccc(Cl)cc1)C(=O)O` (centres unmarked) [compound 6, 3-[(4-chlorophenyl)thio]-2-methylpropanoic acid], for which the IC50 is 68.6 µM.
As for `Cc1cc2c(c(C)c1Cl)N(CC(=O)OC(C)C)C(=O)CO2` [1c], the IC50 is > 300 µM.

For orientation: IC50 means the concentration at which inhibition is half-maximal.
